The record followed here is patent publication US11065300B2, “Immunomodulator for hypersensitivity reaction to house dust mite-derived allergen” (MD HEALTHCARE INC., priority 2016, dated 2021).

The test system of this test is macrophage RAW264.7. Put plainly: IL-6 and TNF-alpha secretion by macrophages given MicA sRNA Salmonella vesicles mixed with PMB. Type of test: cell-based. Here is the method:
Salmonella-derived vesicles themselves have good immunogenicity, but toxicity due to LPS present in the extracellular membrane is a problem. In order to solve this problem, the induction level of innate immune response was evaluated by mixing PMB inhibiting the activity of LPS with vesicles derived from Salmonella overexpressing Mic A sRNA.
Specifically, inflammatory cells (macrophage RAW264.7, 5×10^5 cells/well) were cultured in DMEM comprising 10% FBS and antibiotics (100 units/ml penicillin and 100 μg/ml streptomycin) for 24 hours at 37° C. 24 well tissue culture plate (TPP). After the medium was removed, extracellular vesicles comprising PMB were changed to serum-free DMEM medium added at a concentration of 1 ug/ml. After 15 hours, secretion of IL-6 and TNF-alpha was measured in inflammatory cells.
In order to determine the optimum PMB dilution concentration, in the above method, the PMB concentration was subdivided into 1, 2, 4, 8, and 10 ug/ml and administered to the macrophages together with the vesicles.

Consider polymyxin B [PMB], for which the IL-6 secretion result (PMB 1 μg/ml or 10 μg/ml mixed with vesicles 1 ug/ml, RAW264.7, 15 hours) is given as “decreased”. For the same substance, the TNF-alpha secretion result (PMB 10 μg/ml mixed with vesicles 1 ug/ml, RAW264.7, 15 hours) is listed as “inhibited”. Also, the “PMB concentration above which secretion of IL-6 no longer decreased” value (PMB 1, 2, 4, 8 and 10 ug/ml with vesicles, RAW264.7) is 2 µg/mL.
